Test results as given in PubChem BioAssay AID651642 (Sanford-Burnham Center for Chemical Genomics, 2012).

Legend:
H9c2 = experiment: protection of cardiomyocytes from stress damage, SAR follow-up, cell-based, panel, H9c2 and HL-1, H2O2, 2-deoxyglucose, ATP luminescence (AID 651642)
HL-1 = experiment: as above
[1] = H9c2/HL-1 cardiomyocyte 2-deoxyglucose damage, mean of runs, with 2-deoxyglucose, mean IC50 across panel
[2] = H9c2/HL-1 cardiomyocyte 2-deoxyglucose damage, run 1, with 2-deoxyglucose
[3] = H9c2/HL-1 cardiomyocyte 2-deoxyglucose damage, run 2, with 2-deoxyglucose
[4] = H9c2/HL-1 cardiomyocyte 2-deoxyglucose damage, run 3, with 2-deoxyglucose
[5] = H9c2/HL-1 cardiomyocyte 2-deoxyglucose damage, run 4, with 2-deoxyglucose
[6] = H9c2/HL-1 cardiomyocyte H2O2 oxidative damage, run 1, with H2O2
[7] = H9c2/HL-1 cardiomyocyte H2O2 oxidative damage, run 2, with H2O2
[8] = H9c2/HL-1 cardiomyocyte H2O2 oxidative damage, run 3, with H2O2
[9] = H9c2/HL-1 cardiomyocyte H2O2 oxidative damage, run 4, with H2O2
[10] = H9c2/HL-1 cardiomyocyte H2O2 oxidative damage, mean of runs, with H2O2, mean IC50 across panel

COc1ccc2c(c1OC)C(=O)N1c3ccccc3C(=O)N(Cc3cccc(C)c3)C21 (stereo not drawn)
IC50 (H9c2; [1]): > 79 µM
IC50 (H9c2; [2]): > 79 µM
IC50 (H9c2; [3]): > 79 µM
IC50 (H9c2; [4]): > 79 µM
IC50 (H9c2; [5]): > 79 µM
IC50 (H9c2; [6]): 5.63 µM
IC50 (H9c2; [7]): 6 µM
IC50 (H9c2; [8]): > 79 µM
IC50 (H9c2; [9]): > 79 µM
IC50 (HL-1; [1]): 10.6 µM
IC50 (HL-1; [2]): 7.52 µM
IC50 (HL-1; [3]): 8.41 µM
IC50 (HL-1; [4]): 12 µM
IC50 (HL-1; [5]): 14.6 µM
IC50 (HL-1; [10]): > 79 µM
IC50 (HL-1; [6]): > 79 µM
IC50 (HL-1; [7]): > 79 µM
IC50 (HL-1; [8]): > 79 µM
IC50 (HL-1; [9]): > 79 µM

COc1ccc2c(c1OC)C(=O)N1c3ccccc3C(=O)N(Cc3ccccc3F)C21 (stereo not drawn)
IC50 (H9c2; [1]): 34.3 µM
IC50 (H9c2; [2]): 36.6 µM
IC50 (H9c2; [3]): 37.9 µM
IC50 (H9c2; [4]): 31.3 µM
IC50 (H9c2; [5]): 31.6 µM
IC50 (H9c2; [6]): 1.35 µM
IC50 (H9c2; [7]): 2.03 µM
IC50 (H9c2; [8]): > 79 µM
IC50 (H9c2; [9]): > 79 µM
IC50 (HL-1; [1]): 7.16 µM
IC50 (HL-1; [2]): 2.26 µM
IC50 (HL-1; [3]): 2.31 µM
IC50 (HL-1; [4]): 8.41 µM
IC50 (HL-1; [5]): 15.7 µM
IC50 (HL-1; [10]): > 79 µM
IC50 (HL-1; [6]): > 79 µM
IC50 (HL-1; [7]): > 79 µM
IC50 (HL-1; [8]): > 79 µM
IC50 (HL-1; [9]): > 79 µM

CCOC(=O)c1cccc(NC(=O)c2cc(-c3cc(OC)c(OC)c(OC)c3)nc3ccc(OC)cc23)c1
IC50 (H9c2; [2]): > 79 µM
IC50 (H9c2; [3]): 24.6 µM
IC50 (H9c2; [4]): 35.6 µM
IC50 (H9c2; [5]): 44.4 µM
IC50 (H9c2; [10]): 2.56 µM
IC50 (H9c2; [6]): 2.7 µM
IC50 (H9c2; [7]): 2.92 µM
IC50 (H9c2; [8]): 2.05 µM
IC50 (H9c2; [9]): 2.56 µM
IC50 (HL-1; [2]): 2.77 µM
IC50 (HL-1; [3]): 2.79 µM
IC50 (HL-1; [4]): > 79 µM
IC50 (HL-1; [5]): > 79 µM
IC50 (HL-1; [6]): 4.24 µM
IC50 (HL-1; [7]): 4.51 µM
IC50 (HL-1; [8]): > 79 µM
IC50 (HL-1; [9]): 2.3 µM

COc1ccc2c(c1OC)C(=O)N1c3ccccc3C(=O)N(Cc3ccccc3Cl)C21 (stereo not drawn)
IC50 (H9c2; [1]): 15.8 µM
IC50 (H9c2; [2]): 17 µM
IC50 (H9c2; [3]): 20.1 µM
IC50 (H9c2; [4]): 12 µM
IC50 (H9c2; [5]): 14.2 µM
IC50 (H9c2; [6]): 0.558 µM
IC50 (H9c2; [7]): 0.745 µM
IC50 (H9c2; [8]): > 79 µM
IC50 (H9c2; [9]): > 79 µM
IC50 (HL-1; [1]): 2.3 µM
IC50 (HL-1; [2]): 1.05 µM
IC50 (HL-1; [3]): 1.56 µM
IC50 (HL-1; [4]): 2.66 µM
IC50 (HL-1; [5]): 3.94 µM
IC50 (HL-1; [10]): > 79 µM
IC50 (HL-1; [6]): > 79 µM
IC50 (HL-1; [7]): > 79 µM
IC50 (HL-1; [8]): > 79 µM
IC50 (HL-1; [9]): > 79 µM

COc1cc(-c2cc(C(=O)Nc3cccc(C(=O)N4CCOCC4)c3)c3ccccc3n2)cc(OC)c1OC
IC50 (H9c2; [2]): > 79 µM
IC50 (H9c2; [3]): 60.5 µM
IC50 (H9c2; [4]): > 79 µM
IC50 (H9c2; [5]): > 79 µM
IC50 (H9c2; [10]): 5.92 µM
IC50 (H9c2; [6]): 6.19 µM
IC50 (H9c2; [7]): 7.7 µM
IC50 (H9c2; [8]): 4.73 µM
IC50 (H9c2; [9]): 5.07 µM
IC50 (HL-1; [1]): 19 µM
IC50 (HL-1; [2]): 8.16 µM
IC50 (HL-1; [3]): 11.2 µM
IC50 (HL-1; [4]): 27.8 µM
IC50 (HL-1; [5]): 28.6 µM
IC50 (HL-1; [10]): 14.7 µM
IC50 (HL-1; [6]): 12.9 µM
IC50 (HL-1; [7]): 16.7 µM
IC50 (HL-1; [8]): 10.7 µM
IC50 (HL-1; [9]): 18.4 µM

COc1cc(-c2cc(C(=O)NCC(=O)Nc3cccc(C(C)=O)c3)c3cccc(Cl)c3n2)cc(OC)c1OC
IC50 (H9c2; [2]): > 79 µM
IC50 (H9c2; [3]): 32.2 µM
IC50 (H9c2; [4]): 7.32 µM
IC50 (H9c2; [5]): 8.12 µM
IC50 (H9c2; [10]): 0.651 µM
IC50 (H9c2; [6]): 2.72 µM
IC50 (H9c2; [7]): 3.44 µM
IC50 (H9c2; [8]): 2.56 µM
IC50 (H9c2; [9]): 3.46 µM
IC50 (HL-1; [1]): 6.58 µM
IC50 (HL-1; [2]): 5.45 µM
IC50 (HL-1; [3]): 9.03 µM
IC50 (HL-1; [4]): 5.38 µM
IC50 (HL-1; [5]): 6.47 µM
IC50 (HL-1; [6]): > 79 µM
IC50 (HL-1; [7]): > 79 µM
IC50 (HL-1; [8]): 4.06 µM
IC50 (HL-1; [9]): 6.82 µM

COc1cc(-c2cc(C(=O)NCC(=O)Nc3ccc(C(C)=O)cc3)c3ccccc3n2)cc(OC)c1OC
IC50 (H9c2; [2]): > 79 µM
IC50 (H9c2; [3]): > 79 µM
IC50 (H9c2; [4]): 6.74 µM
IC50 (H9c2; [5]): 8.41 µM
IC50 (H9c2; [6]): > 79 µM
IC50 (H9c2; [7]): > 79 µM
IC50 (H9c2; [8]): 1.62 µM
IC50 (H9c2; [9]): 1.71 µM
IC50 (HL-1; [2]): > 79 µM
IC50 (HL-1; [3]): > 79 µM
IC50 (HL-1; [4]): 6.28 µM
IC50 (HL-1; [5]): 7.65 µM
IC50 (HL-1; [6]): > 79 µM
IC50 (HL-1; [7]): > 79 µM
IC50 (HL-1; [8]): 7.43 µM
IC50 (HL-1; [9]): 9.32 µM

COc1ccccc1CN1C(=O)c2ccccc2N2C(=O)c3c(ccc(OC)c3OC)C12 (stereo not drawn)
IC50 (H9c2; [2]): > 79 µM
IC50 (H9c2; [3]): > 79 µM
IC50 (H9c2; [4]): 43.5 µM
IC50 (H9c2; [5]): 46.2 µM
IC50 (H9c2; [6]): > 79 µM
IC50 (H9c2; [7]): 0.303 µM
IC50 (H9c2; [8]): > 79 µM
IC50 (H9c2; [9]): > 79 µM
IC50 (HL-1; [1]): 5.37 µM
IC50 (HL-1; [2]): 2.86 µM
IC50 (HL-1; [3]): 3.96 µM
IC50 (HL-1; [4]): 6.95 µM
IC50 (HL-1; [5]): 7.71 µM
IC50 (HL-1; [6]): > 79 µM
IC50 (HL-1; [7]): > 79 µM
IC50 (HL-1; [8]): 4.54 µM
IC50 (HL-1; [9]): 12 µM

COc1cc(-c2cc(C(=O)Nc3cccc(C(C)=O)c3)c3ccccc3n2)cc(OC)c1OC
IC50 (H9c2; [1]): > 79 µM
IC50 (H9c2; [2]): > 79 µM
IC50 (H9c2; [3]): > 79 µM
IC50 (H9c2; [4]): > 79 µM
IC50 (H9c2; [5]): > 79 µM
IC50 (H9c2; [6]): 3.74 µM
IC50 (H9c2; [7]): 4.04 µM
IC50 (H9c2; [8]): > 79 µM
IC50 (H9c2; [9]): 3.69 µM
IC50 (HL-1; [1]): 8.62 µM
IC50 (HL-1; [2]): 5.68 µM
IC50 (HL-1; [3]): 6.27 µM
IC50 (HL-1; [4]): 8.63 µM
IC50 (HL-1; [5]): 13.9 µM
IC50 (HL-1; [10]): 7.06 µM
IC50 (HL-1; [6]): 5.59 µM
IC50 (HL-1; [7]): 5.68 µM
IC50 (HL-1; [8]): 6.71 µM
IC50 (HL-1; [9]): 10.3 µM
